Two compounds from publication PMC8730463, “The human gut symbiont Ruminococcus gnavus shows specificity to blood group A antigen during mucin glycan foraging: Implication for niche colonisation in the gastrointestinal tract” (PLoS Biology, 2021) can be followed below.

The target of one assay is T1, RgGH98.
T1 construct: gene RGna_RS10325; 44–946 aa (N-term GBLD, catalytic domain, C-term domain)
Description: crystal structure ([…] Å), ITC and STD NMR. The assay is classed as binding, Mediterraneibacter gnavus.

Assay [1] addresses T2, Ulex Europaeus Agglutinin I (UEA I) (Ulex europaeus, UniProt P22972).
T2 sequence (P22972 1-243): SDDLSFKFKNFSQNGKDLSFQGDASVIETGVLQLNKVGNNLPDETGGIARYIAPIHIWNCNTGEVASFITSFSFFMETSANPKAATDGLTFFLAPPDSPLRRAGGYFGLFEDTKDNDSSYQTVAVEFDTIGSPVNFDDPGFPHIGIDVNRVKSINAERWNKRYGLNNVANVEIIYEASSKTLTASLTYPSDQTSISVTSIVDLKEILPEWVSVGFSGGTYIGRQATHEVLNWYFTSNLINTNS
The experiment in a line: ITC (control lectin). The assay is classed as binding.

By Kd is commonly meant the constant that tells how readily two partners part at equilibrium. On RgGH98, `CC(=O)N[C@H]1[C@@H](O[C@H]2[C@@H](O)[C@@H](CO)O[C@@H](O[C@H]3[C@H](O)[C@@H](NC(C)=O)C(O)O[C@@H]3CO)[C@@H]2O[C@@H]2O[C@@H](C)[C@@H](O)[C@@H](O)[C@@H]2O)O[C@H](CO)[C@H](O)[C@@H]1O` (some centres unmarked) [BgA II, blood group A tetrasaccharide type II] showed a Kd of 490 µM.

`CC(=O)N[C@H]1C(O)O[C@H](CO)[C@@H](O[C@@H]2O[C@H](CO)[C@H](O)[C@H](O)[C@H]2O[C@@H]2O[C@@H](C)[C@@H](O)[C@@H](O)[C@@H]2O)[C@@H]1O` (some centres unmarked) [BgH, blood group H trisaccharide]: binding in assay [1] was put at a Kd of 10.3 µM.
